Data: ChEMBL document CHEMBL1150657, “Assessment of the antiprotozoal activity of Galphimia glauca and the isolation of new nor-secofriedelanes and nor-friedelanes” (J Nat Prod, 2002)
pIC50: −log10 of the molar value.

What was measured:
[1] = system: Leishmania donovani; assay: Antileishmanial activity against Leishmania donovani (MHOM/ET/67/L82) promastigotes; format: functional, organism-based
[2] = system: Plasmodium falciparum; assay: Antiprotozoal activity against Plasmodium falciparum K1; format: functional, organism-based
[3] = system: KB; assay: Cytotoxicity against human KB cells; format: cell-based
[4] = system: Trypanosoma brucei brucei; assay: Antitrypanosomal activity against Trypanosoma brucei brucei S427 blood stream trypomastigotes; format: functional, organism-based

pIC50 [1] | pIC50 [2] | pIC50 [4] | SMILES | pIC50 [3] | IC50 [1] [mg/L] | IC50 [3] [mg/L] | IC50 [4] [mg/L] | IC50 [2] [mg/L]
< 4.00 | < 4.00 | < 4.00 | C=C1CC[C@]2(C)CC[C@]3(C)[C@H]4[C@H](OC(C)=O)C[C@]5(COC(C)=O)[C@@H](C)OC(=O)[C@H]6O[C@H]6[C@H]5[C@]4(C)CC[C@@]3(C(=O)OC)[C@]2(O)C1 [GALPHIN A] | < 4.00 | – | – | – | –
< 4.00 | < 4.00 | < 4.00 | C=C1C[C@@H](OC(C)=O)[C@]2(C)CC[C@]3(C)[C@H]4[C@H](OC(C)=O)C[C@]5(COC(C)=O)[C@@H](C)OC(=O)[C@H]6O[C@H]6[C@H]5[C@]4(C)CC[C@@]3(C(=O)OC)[C@]2(O)C1 [GALPHIN B] | < 4.00 | – | – | – | –
< 4.00 | < 4.00 | < 4.00 | C=C1C[C@H](C(=O)OC)[C@]2(C)CC[C@]3(C)[C@H]4[C@H](O)[C@@H](O)[C@]5(COC(C)=O)[C@@H](C)[C@@H](OC(C)=O)CC[C@H]5[C@]4(C)CC[C@@]3(O)[C@]2(O)C1 [GALPHIMIDIN] | < 4.00 | – | – | – | –

Continued, compound first:

SMILES | pIC50 [1] | pIC50 [2] | pIC50 [4] | pIC50 [3] | IC50 [1] [mg/L] | IC50 [3] [mg/L] | IC50 [4] [mg/L] | IC50 [2] [mg/L]
CC[C@H](/C=C/[C@@H](C)[C@H]1CC[C@H]2[C@@H]3CC=C4C[C@@H](O[C@@H]5O[C@H](CO)[C@@H](O)[C@H](O)[C@H]5O)CC[C@]4(C)[C@H]3CC[C@]12C)C(C)C [STIGMASTEROL GLUCOSIDE] | < 4.00 | < 4.00 | < 4.00 | < 4.00 | – | – | – | –
C=C1C[C@@H](OC(C)=O)[C@]2(C)CC[C@]3(C)[C@H]4[C@H](OC(C)=O)C[C@]5(COC(C)=O)[C@@H](C)OC(=O)[C@H]6O[C@H]6[C@H]5[C@]4(C)C[C@H](OC(C)=O)[C@@]3(C(=O)OC)[C@]2(O)C1 [GALPHIN C] | < 4.00 | < 4.00 | < 4.00 | < 4.00 | – | – | – | –
N=C(N)c1ccc(OCCCCCOc2ccc(C(=N)N)cc2)cc1 [PENTAMIDINE] | – | – | – | – | 0.24 | 0.11 | 0.0006 | –
O=c1c(O)c(-c2ccc(O)c(O)c2)oc2cc(O)cc(O)c12 [QUERCETIN] | – | – | – | – | 29.5 | 136 | 4.5 | 6.5
CCN(CC)CCCC(C)Nc1ccnc2cc(Cl)ccc12 (stereo not drawn) [CHLOROQUINE] | – | – | – | – | – | 51.4 | – | –
CC[C@H](/C=C/[C@@H](C)[C@H]1CC[C@H]2[C@@H]3CC=C4C[C@@H](O)CC[C@]4(C)[C@H]3CC[C@]12C)C(C)C [STIGMASTEROL] | < 4.00 | < 4.00 | < 4.00 | < 4.00 | – | – | – | –
COc1cc([C@@H]2c3cc4c(cc3[C@H](O)[C@H]3COC(=O)[C@H]23)OCO4)cc(OC)c1OC [PODOFILOX] | – | – | – | – | – | 0.00621 | – | –
